Reference: patent EP4647082A1, “PHARMACEUTICAL COMPOSITION COMPRISING A CGRP RECEPTOR ANTAGONIST FOR THE TREATMENT OF ACUTE MIGRAINE” (NUVIE BIO, Inc., priority 2024, dated 2025)
Where two headings read alike, the source gives them in different places. Bridge positions count the residues as written; N and C are the ends. Square brackets hold non-standard residues; d marks the D form. Peptide text beside a SMILES is read from it. * marks the point of attachment. Phe(2-CONH2) = NC(=O)c1ccccc1C[C@H](N)C(=O)O; Orn(iPr) = CC(C)NCCC[C@H](N)C(=O)O; Oxazole2carbonyl = O=C(c1ncco1)*; 3Pal = N[C@@H](Cc1cccnc1)C(=O)O

How the values were obtained:
Solubility of AXN-001 = type: physicochemical; settings: neutral pH
[1] = Phase I first-in-human study, pharmacokinetics after single ascending subcutaneous doses in healthy volunteers; type: in vivo; settings: for AUC(0-inf) / AUC(0-t) / CL/F / Cmax / Tmax / half-life / level at 1 h / level at 2 h / level at 3 h / level at 0.08 h / level at 0.17 h / level at 0.25 h / level at 0.33 h / level at 0.5 h / level at 0.75 h / level at 4 h / level at 6 h / level at 8 h: human, plasma, mean; for level at 1 h: nominal time 1 h; for level at 1 h / level at 2 h / level at 3 h / level at 0.08 h / level at 0.17 h / level at 0.25 h / level at 0.33 h / level at 0.5 h / level at 0.75 h / level at 4 h / level at 6 h / level at 8 h: read-out: Plasma Concentration AXN-001; for level at 2 h: nominal time 2 h; for level at 3 h: nominal time 3 h; for level at 0.08 h: nominal time 0.08 h; for level at 0.17 h: nominal time 0.17 h; for level at 0.25 h: nominal time 0.25 h; for level at 0.33 h: nominal time 0.33 h; for level at 0.5 h: nominal time 0.50 h; for level at 0.75 h: nominal time 0.75 h; for level at 4 h: nominal time 4 h; for level at 6 h: nominal time 6 h; for level at 8 h: nominal time 8 h
Procedure: For Phase I clinical studies, the 32 mg/mL pharmaceutical composition was dosed subcutaneously. The Phase I clinical trial was a randomised, double-blind, placebo-controlled, first-in-human study of the safety, tolerability and pharmacokinetics of AXN-001 in healthy volunteers under Protocol No. AXN-001-01 .
The pharmacokinetic objective of the clinical trial was to provide pharmacokinetic analysis of AXN-001 following single ascending subcutaneous doses of AXN-001. The study design included the following Cohorts: • Cohort 1: Dose 1 mg (2 mg/mL formulation); • Cohort 2: Dose 2 mg (4 mg/mL formulation); • Cohort 3: Dose 4 mg (8 mg/mL formulation); • Cohort 4: Dose 8 mg (16 mg/mL formulation); • Cohort 5: Dose 16 mg (32 mg/mL formulation).
Participants were administered a single dose (0.5 mL) of AXN-001 or placebo via subcutaneous (SC) injection into the abdomen. Blood samples were collected at specified time points for pharmacokinetic analysis (5,10,15,20,30,45,60 minutes; 2,3,4,6,8,12,24 hours). Individual plasma concentrations of ANX-001 were determined and used for analyses.
Pharmacokinetic (PK) parameters of AXN-001 were determined using Phoenix WinNonlin version 8.3. All concentrations below the limit of quantification (BLQ) were set to zero for the purpose of the PK analysis. All AUC determinations were made using linear trapezoidal method. The following parameters were determined: Cmax Maximum observed concentration. as read directly from the observed data. Tmax Time to maximum concentration T10nM Time to 10 nM T30nM Time to 30 nM T100nM Time to 100 nM AUC0-t Area under the concentration-time curve from time zero to the time of the last measurable concentration, calculated using linear trapezoidal rule AUC0-inf Area under the concentration-time curve from time zero to infinity, calculated using linear trapezoidal rule %AUCextrap The portion of AUC determined by extrapolation t1/2 Apparent terminal elimination half-life CL/F or CL Total apparent body clearance Vz/F or Vz Apparent volume of distribution λz Terminal elimination rate constant

solubility (Solubility of AXN-001): low
subjects who achieved plasma concentrations of 30nM ([1]; 1 mg cohort): 1 of 6
subjects who achieved plasma concentrations of 30nM ([1]; 2 mg cohort): 5 of 6
subjects who achieved 100nM plasma concentrations ([1]; 4 mg cohort): 2/5
subjects who achieved plasma concentrations of 30nM ([1]; 4, 8, and 16 mg cohort): All subjects
subjects who achieved 100nM plasma concentrations ([1]; 8 and 16 mg cohorts): All subjects
time to achieve plasma concentrations of 10nM AXN-001 ([1]; all subjects at all doses (1-16 mg SC)): less than 15 minutes
AUC(0-inf) ([1]; single SC dose 1 mg): 101 ng·h/mL
AUC(0-t) ([1]; single SC dose 1 mg): 96.1 ng·h/mL
CL/F ([1]; single SC dose 1 mg): 167 mL/min
Cmax ([1]; single SC dose 1 mg): 39.5 ng/mL
Tmax ([1]; single SC dose 1 mg): 0.792 h
half-life ([1]; single SC dose 1 mg): 1.31 h
level at 1 h ([1]; single SC dose 1 mg): 35.1 ng/mL
level at 2 h ([1]; single SC dose 1 mg): 22.8 ng/mL
level at 3 h ([1]; single SC dose 1 mg): 13.7 ng/mL
AUC(0-inf) ([1]; single SC dose 2 mg): 167 ng·h/mL
AUC(0-t) ([1]; single SC dose 2 mg): 159 ng·h/mL
CL/F ([1]; single SC dose 2 mg): 210 mL/min
Cmax ([1]; single SC dose 2 mg): 65 ng/mL
Tmax ([1]; single SC dose 2 mg): 0.792 h
half-life ([1]; single SC dose 2 mg): 1.35 h
level at 0.08 h ([1]; single SC dose 2 mg): 11.3 ng/mL
level at 0.17 h ([1]; single SC dose 2 mg): 21.6 ng/mL
level at 0.25 h ([1]; single SC dose 2 mg): 31.5 ng/mL
level at 0.33 h ([1]; single SC dose 2 mg): 40.4 ng/mL
level at 0.5 h ([1]; single SC dose 2 mg): 55.7 ng/mL
level at 0.75 h ([1]; single SC dose 2 mg): 62.6 ng/mL
level at 1 h ([1]; single SC dose 2 mg): 60.2 ng/mL
level at 2 h ([1]; single SC dose 2 mg): 38.1 ng/mL
level at 3 h ([1]; single SC dose 2 mg): 21.3 ng/mL
level at 4 h ([1]; single SC dose 2 mg): 11.4 ng/mL
level at 6 h ([1]; single SC dose 2 mg): 4.79 ng/mL
level at 8 h ([1]; single SC dose 2 mg): 0.713 ng/mL
AUC(0-inf) ([1]; single SC dose 4 mg): 343 ng·h/mL
AUC(0-t) ([1]; single SC dose 4 mg): 337 ng·h/mL
CL/F ([1]; single SC dose 4 mg): 197 mL/min
Cmax ([1]; single SC dose 4 mg): 133 ng/mL
Tmax ([1]; single SC dose 4 mg): 0.7 h
half-life ([1]; single SC dose 4 mg): 1.36 h
level at 0.08 h ([1]; single SC dose 4 mg): 9.6 ng/mL
level at 0.17 h ([1]; single SC dose 4 mg): 35.3 ng/mL
level at 0.25 h ([1]; single SC dose 4 mg): 71.4 ng/mL
level at 0.33 h ([1]; single SC dose 4 mg): 87.8 ng/mL
level at 0.5 h ([1]; single SC dose 4 mg): 115 ng/mL
level at 0.75 h ([1]; single SC dose 4 mg): 123 ng/mL
level at 1 h ([1]; single SC dose 4 mg): 134 ng/mL
level at 2 h ([1]; single SC dose 4 mg): 82.5 ng/mL
level at 3 h ([1]; single SC dose 4 mg): 44.7 ng/mL
level at 4 h ([1]; single SC dose 4 mg): 23.5 ng/mL
level at 6 h ([1]; single SC dose 4 mg): 8.25 ng/mL
level at 8 h ([1]; single SC dose 4 mg): 3.09 ng/mL
AUC(0-inf) ([1]; single SC dose 8 mg): 594 ng·h/mL
AUC(0-t) ([1]; single SC dose 8 mg): 585 ng·h/mL
CL/F ([1]; single SC dose 8 mg): 225 mL/min
Cmax ([1]; single SC dose 8 mg): 244 ng/mL
Tmax ([1]; single SC dose 8 mg): 0.75 h
half-life ([1]; single SC dose 8 mg): 1.47 h
level at 0.08 h ([1]; single SC dose 8 mg): 32.1 ng/mL
level at 0.17 h ([1]; single SC dose 8 mg): 84 ng/mL
level at 0.25 h ([1]; single SC dose 8 mg): 118 ng/mL
level at 0.33 h ([1]; single SC dose 8 mg): 144 ng/mL
level at 0.5 h ([1]; single SC dose 8 mg): 199 ng/mL
level at 0.75 h ([1]; single SC dose 8 mg): 240 ng/mL
level at 1 h ([1]; single SC dose 8 mg): 226 ng/mL
Compound: CC(C)NCCC[C@@H]1NC(=O)[C@@H](NC(=O)[C@H](Cc2ccccc2C(N)=O)NC(=O)[C@H](NC(=O)c2ncco2)C(C)C)CSSC[C@@H](C(=O)N[C@@H](Cc2cccnc2)C(N)=O)NC(=O)[C@H](Cc2ccccc2)NC(=O)[C@@H]2CCCN2C(=O)CNC(=O)[C@H](C(C)C)NC(=O)[C@H](CC(=O)O)NC1=O [AXN-001, Oxazole-2-carbonyl-D-Val-Phe(2-Cbm)-c(Cys-Orn (iPr)-Asp-Val-Gly-Pro-Phe-Cys)-3Pal-NH2] (Oxazole2carbonyl-[dV][Phe(2-CONH2)]C[Orn(iPr)]DVGPFC[3Pal]-NH2; disulfide 3-10)
